This is an account of results in patent US7109197B2, “N-phenyl-4-(4-pyridyl)-2-pyrimidineamine derivatives” (Syngenta Crop Protection, Inc., priority 2000, dated 2006).

Where two headings read alike, the source gives them in different places. Some results are limits rather than exact numbers.

For orientation: melting point means the temperature of the solid-liquid transition.

For one series, the system named is Erysiphe graminis. The series can be described thus: Assay B-6: Effect against Erysiphe graminis on barley (powdery mildew); residual protective / systemic activity. As to conditions: 0.02% active substance spray (residual) or 0.002% soil (systemic), variant not stated. It is filed as in vivo. The procedure:
Assay B-6: Effect Against Erysiphe graminis on Barley (Powdery Mildew on Barley) a) Residual Protective Activity […] The infected plants are placed in a greenhouse at 22°. 12 days after infection, the fungal attack is evaluated. b) Systemic Activity […] […] 48 hours later, the plants are dusted with conidia of the fungus. The infected plants are placed in a greenhouse at 22° C. 12 days after infection, the disease incidence is evaluated.

The test system of series [1] is Botrytis cinerea. The series can be described thus: Assay B-8: Effect against Botrytis cinerea/tomato (Botrytis on tomatoes). It is filed as in vivo. As to conditions: Botrytis cinerea on tomato cv. Roter Gnom; 0.02% active substance, spray. The method, then: Assay B-8: Effect Against Botrytis cinerea/Tomato (Botrytis on Tomatoes) 4 week old tomato plants cv. Roter Gnom are treated with the formulated testcompound 0.02% active substance) in a spray chamber. Two days after application tomato plants are inoculated by spraying a spore suspension (1×10^5 conidia/ml) on the test plants. After an incubation period of 4 days at 20° C. and 95% r. h. in a greenhouse the disease incidence is assessed.

Another series concerns Pyricularia oryzae. It is filed as in vivo. To be noted: Pyricularia oryzae on rice cv. Sasanishiki; 0.02% active substance, spray.
The test system of a further series is Fusarium culmorum. It is filed as in vivo.
A further series has as its system Septoria nodorum. The series is described as follows: Assay B-12: Effect against Septoria nodorum/wheat (Septoria leaf spot on wheat). As to conditions: Septoria nodorum on wheat cv. Arina, 0.02% active substance, spray; for pest or weed control at 0.02 % strength: Parastagonospora nodorum, 264 h, read-out: B12 activity. It is filed as in vivo.
Series [2] relates to Pyrenophora teres (Helminthosporium). The series is described as follows: Assay B-10: Effect against Pyrenophora teres (Helminthosporium)/barley (net blotch on barley). It is filed as in vivo. As to conditions: Pyrenophora teres on barley cv. Regina, 0.02% active substance, spray; for pest or weed control at 0.02 % strength: 96 h, read-out: B10 activity. The gist of the method:
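One-week-old barley cv. Regina sprayed with formulated compound at 0.02% active substance, then inoculated 2 days later with 3×10^4 conidia/ml. Held 2 days at 20° C/95% r.h., then 2 days at 20° C/60% r.h.; disease incidence scored 4 days after inoculation.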

The subject of another series is Venturia inaegualis. The series can be described thus: Assay B-5: Residual protective activity against Venturia inaegualis on apples (scab on apple). It is filed as in vivo. To be noted: Venturia inaegualis on apple seedlings cv. McIntosh; 0.02% active substance, spray.
Series [3] concerns Botrytis cinerea. The series is described as follows: Assay B-7: Botrytis cinerea/grape (Botrytis on grapes). It is filed as in vivo. As to conditions: Botrytis cinerea on grape seedlings cv. Gutedel; 0.02% active substance, spray. The method, then:
Assay B-7: Botrytis cinerea/Grape (Botrytis on Grapes) 5 week old grape seedlings cv. Gutedel are treated with the formulated testcompound (0.02% active substance) in a spray chamber. Two days after application grape plants are inoculated by spraying a spore suspension (1×10^6 conidia/ml) on the test plants. After an incubation period of 4 days at 21° C. and 95% r. h. in a greenhouse the disease incidence is assessed.

[4] abbreviates: Fusarium culmorum, wheat seeds cv. Orestis in pouch, 0.002% active substance.

With `CCC(COC)Nc1cc(-c2ccnc(Nc3cccc(Cl)c3)n2)ccn1` (centres unmarked) [Compound 4], in the series with Erysiphe graminis, the B6 activity result was “+ (the activity observed in the corresponding test system is 70% or more)”. Further, the B8 activity entry with Botrytis cinerea [1] is “+ (the activity observed in the corresponding test system is 70% or more)”. For the same compound, in the series with Pyricularia oryzae, the B9 activity result is given as “+ (the activity observed in the corresponding test system is 70% or more)”. In the series with Fusarium culmorum (in vivo), the B11 activity entry is reported as “+ (key: +: the activity observed in the corresponding test system is 70% or more)”. Also, the B12 activity result with Septoria nodorum was “+ (the activity observed in the corresponding test system is 70% or more)”.
Turning to `COCC(C)Nc1cc(-c2ccnc(Nc3cccc(OC(F)(F)C(F)F)c3)n2)ccn1` (centres unmarked) [Compound 5], in series [2], the B10 activity entry is recorded as “+ (the activity observed in the corresponding test system is 70% or more)”. In addition, the B11 activity result in the series with Fusarium culmorum (in vivo) is given as “+ (key: +: the activity observed in the corresponding test system is 70% or more)”. In addition, the B12 activity entry in the series on Septoria nodorum is reported as “+ (the activity observed in the corresponding test system is 70% or more)”.
On to `CCC(CO)Nc1cc(-c2ccnc(Nc3cccc(Cl)c3)n2)ccn1` (centres unmarked) [Compound 31], for which the B5 activity entry in the series with Venturia inaegualis is given as “+ (the activity observed in the corresponding test system is 70% or more)”. Moreover, the B7 activity entry in the series on Botrytis cinerea [3] is “+ (the activity observed in the corresponding test system is 70% or more)”. The B8 activity result in the series with Botrytis cinerea [1] is “+ (the activity observed in the corresponding test system is 70% or more)”. In series [2], the B10 activity result is reported as “+ (the activity observed in the corresponding test system is 70% or more)”. For the same compound, the B11 activity entry in the series on Fusarium culmorum (in vivo) is recorded as “+ (key: +: the activity observed in the corresponding test system is 70% or more)”.
For the compound `COCCNc1cc(-c2ccnc(Nc3cccc(Cl)c3)n2)ccn1` [Compound 34], the B7 activity result with Botrytis cinerea [3] was “+ (the activity observed in the corresponding test system is 70% or more)”. The B8 activity result in the series on Botrytis cinerea [1] is on record as “+ (the activity observed in the corresponding test system is 70% or more)”. In series [2], the B10 activity result is recorded as “+ (the activity observed in the corresponding test system is 70% or more)”. In addition, the B11 activity result in the series on Fusarium culmorum (in vivo) was “+ (key: +: the activity observed in the corresponding test system is 70% or more)”. In the series on Septoria nodorum, the B12 activity entry was “+ (the activity observed in the corresponding test system is 70% or more)”.
`Nc1cc(-c2ccnc(Nc3cccc(Cl)c3)n2)ccn1` [Compound 58] came in with a melting point of 214 to 215 °C. Also, the B5 activity entry in the series on Venturia inaegualis is “+ (the activity observed in the corresponding test system is 70% or more)”. Besides, in the series with Erysiphe graminis, the B6 activity result is on record as “+ (the activity observed in the corresponding test system is 70% or more)”. Further, in the series on Botrytis cinerea [3], the B7 activity result was “+ (the activity observed in the corresponding test system is 70% or more)”. Further, in the series with Botrytis cinerea [1], the B8 activity result is on record as “+ (the activity observed in the corresponding test system is 70% or more)”. For the same compound, in the series on Pyricularia oryzae, the B9 activity entry is “+ (the activity observed in the corresponding test system is 70% or more)”. The pest or weed control at 0.02 % strength in series [2] is over 70%. The pest or weed control at 0.02 % strength in the series with Septoria nodorum was over 70%.
As for `CC(=O)Nc1cc(-c2ccnc(Nc3cccc(Cl)c3)n2)ccn1` [Compound 61], the melting point is 245 to 247 °C. For the same compound, the B11 activity result in the series on Fusarium culmorum (setting [4]) is “+ (the activity observed in the corresponding test system is 70% or more)”.
As to `CC(=Nc1cc(-c2ccnc(Nc3cccc(Cl)c3)n2)ccn1)N(C)C` [Compound 66], the B5 activity result in the series on Venturia inaegualis is reported as “+ (the activity observed in the corresponding test system is 70% or more)”. The B7 activity result with Botrytis cinerea [3] is reported as “+ (the activity observed in the corresponding test system is 70% or more)”. Also, the B8 activity entry in the series with Botrytis cinerea [1] is listed as “+ (the activity observed in the corresponding test system is 70% or more)”. The B9 activity result in the series with Pyricularia oryzae was “+ (the activity observed in the corresponding test system is 70% or more)”. Moreover, the B10 activity result in series [2] is “+ (the activity observed in the corresponding test system is 70% or more)”. Also, in the series with Fusarium culmorum (in vivo), the B11 activity result is “+ (key: +: the activity observed in the corresponding test system is 70% or more)”. The B12 activity entry with Septoria nodorum is listed as “+ (the activity observed in the corresponding test system is 70% or more)”.
Take `CC(C)Nc1cc(-c2ccnc(Nc3cccc(Cl)c3)n2)ccn1` [Compound 68]: the melting point was in the range of 184 to 185 °C. Moreover, in the series with Botrytis cinerea [1], the B8 activity entry is on record as “+ (the activity observed in the corresponding test system is 70% or more)”. In addition, the pest or weed control at 0.02 % strength in series [2] is over 70%. For the same compound, in the series with Fusarium culmorum (setting [4]), the B11 activity entry was “+ (the activity observed in the corresponding test system is 70% or more)”. The pest or weed control at 0.02 % strength in the series on Septoria nodorum was over 70%.
For `Clc1cccc(Nc2nccc(-c3ccnc(NC4CCOCC4)c3)n2)c1` [Compound 83], the B8 activity result in the series with Botrytis cinerea [1] was “+ (the activity observed in the corresponding test system is 70% or more)”. Moreover, the B10 activity result in [2] is “+ (the activity observed in the corresponding test system is 70% or more)”. In addition, the B11 activity result with Fusarium culmorum (in vivo) is reported as “+ (key: +: the activity observed in the corresponding test system is 70% or more)”. Also, in the series with Septoria nodorum, the B12 activity entry is reported as “+ (the activity observed in the corresponding test system is 70% or more)”.
